Laboratory results published in ChEMBL document CHEMBL3885861, “Open TG-GATES”.

Species on record: Rattus norvegicus
Experiment: Open TG-GATES - Regimen: Single
Assay type: toxicity, organism-based, Sprague-Dawley
Parameters: regimen Single, gender Male, age 6 weeks
Settings: in vivo, po, 0 mg/kg, route gavage, dose level Control; for APTT / Bas / Eos / Fbg / Hb / Ht / Lym / MCH / MCHC / MCV / Mono / Neu / PT / Plat / RBC / Ret / WBC: tissue Blood; for KIDNEY_L / KIDNEY_R / KIDNEY_TOTAL: tissue Kidney; for LIVER: tissue Liver; for A/G / ALP / ALT / AST / BUN / CRE / Ca / Cl / DBIL / GLC / IP / K / LDH / Na / PL / RALB / TBIL / TC / TG / TP / gamma-GTP: tissue Plasma

NC1=NC(=O)C(c2ccccc2)O1 (configuration not stated) [PEMOLINE]
TERMINAL_BW (3 h): 210.7 g | APTT (3 h): 17.2 s | Bas (3 h): 0% | Eos (3 h): 0.8% | Fbg (3 h): 266 mg/dL | Hb (3 h): 13.1 g/dL | Ht (3 h): 38.2% | Lym (3 h): 78.2% | MCH (3 h): 21.6 pg | MCHC (3 h): 34.3% | MCV (3 h): 62.9 fL | Mono (3 h): 3.8% | Neu (3 h): 16.6% | PT (3 h): 13.4 s | Plat (3 h): 113.2 x10_4/uL | RBC (3 h): 609.4 x10_4/ul | Ret (3 h): 9.5% | WBC (3 h): 87.4 x10_2/uL | KIDNEY_L (3 h): 0.9 g | KIDNEY_R (3 h): 1 g | KIDNEY_TOTAL (3 h): 1.9 g | LIVER (3 h): 9.1 g | A/G (3 h): 1 | ALP (3 h): 1454.8 IU/L | ALT (3 h): 44.8 IU/L | AST (3 h): 77 IU/L | BUN (3 h): 9.8 mg/dL | CRE (3 h): 0.2 mg/dL | Ca (3 h): 10.7 mg/dL | Cl (3 h): 104.2 meq/L | DBIL (3 h): 0.014 mg/dL | GLC (3 h): 175.2 mg/dL | IP (3 h): 8.8 mg/dL | K (3 h): 4 meq/L | LDH (3 h): 69.6 IU/L | Na (3 h): 139.8 meq/L | PL (3 h): 127 mg/dL | RALB (3 h): 2.6 g/dL | TBIL (3 h): 0.044 mg/dL | TC (3 h): 78 mg/dL | TG (3 h): 40.4 mg/dL | TP (3 h): 5.3 g/dL | gamma-GTP (3 h): 1.2 IU/L | TERMINAL_BW (6 h): 209.5 g | APTT (6 h): 17.2 s | Bas (6 h): 0% | Eos (6 h): 1% | Fbg (6 h): 286.2 mg/dL | Hb (6 h): 13.3 g/dL | Ht (6 h): 39.1% | Lym (6 h): 77.6% | MCH (6 h): 22.4 pg | MCHC (6 h): 34.1% | MCV (6 h): 65.9 fL | Mono (6 h): 3% | Neu (6 h): 18% | PT (6 h): 13.2 s | Plat (6 h): 117 x10_4/uL | RBC (6 h): 594.6 x10_4/ul | Ret (6 h): 9.1% | WBC (6 h): 88.4 x10_2/uL | KIDNEY_L (6 h): 0.9 g | KIDNEY_R (6 h): 0.9 g | KIDNEY_TOTAL (6 h): 1.8 g | LIVER (6 h): 8.8 g | A/G (6 h): 1 | ALP (6 h): 1338 IU/L | ALT (6 h): 41.2 IU/L | AST (6 h): 72.8 IU/L | BUN (6 h): 8.2 mg/dL | CRE (6 h): 0.2 mg/dL | Ca (6 h): 10.6 mg/dL | Cl (6 h): 104.4 meq/L | DBIL (6 h): 0.01 mg/dL | GLC (6 h): 173.8 mg/dL | IP (6 h): 9.4 mg/dL | K (6 h): 3.9 meq/L | LDH (6 h): 57.6 IU/L | Na (6 h): 140.4 meq/L | PL (6 h): 138.6 mg/dL | RALB (6 h): 2.6 g/dL | TBIL (6 h): 0.038 mg/dL | TC (6 h): 84.2 mg/dL | TG (6 h): 46.8 mg/dL | TP (6 h): 5.3 g/dL | gamma-GTP (6 h): 1.2 IU/L | TERMINAL_BW (9 h): 210.1 g | APTT (9 h): 17.2 s | Bas (9 h): 0% | Eos (9 h): 1% | Fbg (9 h): 293.8 mg/dL | Hb (9 h): 12.8 g/dL | Ht (9 h): 37.5% | Lym (9 h): 75.4% | MCH (9 h): 21.5 pg | MCHC (9 h): 34.2% | MCV (9 h): 62.8 fL | Mono (9 h): 3.2% | Neu (9 h): 20.2% | PT (9 h): 13.3 s | Plat (9 h): 127.3 x10_4/uL | RBC (9 h): 598.8 x10_4/ul | Ret (9 h): 9.5% | WBC (9 h): 89 x10_2/uL | KIDNEY_L (9 h): 0.9 g | KIDNEY_R (9 h): 0.9 g | KIDNEY_TOTAL (9 h): 1.7 g | LIVER (9 h): 8.1 g | A/G (9 h): 1 | ALP (9 h): 1391.4 IU/L | ALT (9 h): 41.6 IU/L | AST (9 h): 74.8 IU/L | BUN (9 h): 8.2 mg/dL | CRE (9 h): 0.2 mg/dL | Ca (9 h): 10.3 mg/dL | Cl (9 h): 104.4 meq/L | DBIL (9 h): 0.01 mg/dL | GLC (9 h): 168.8 mg/dL | IP (9 h): 10.7 mg/dL | K (9 h): 3.8 meq/L | LDH (9 h): 53.8 IU/L | Na (9 h): 140.8 meq/L | PL (9 h): 121.6 mg/dL | RALB (9 h): 2.7 g/dL | TBIL (9 h): 0.04 mg/dL | TC (9 h): 74.2 mg/dL | TG (9 h): 27.6 mg/dL | TP (9 h): 5.3 g/dL | gamma-GTP (9 h): 1.6 IU/L | TERMINAL_BW (24 h): 216.7 g | APTT (24 h): 17.2 s | Bas (24 h): 0% | Eos (24 h): 1% | Fbg (24 h): 274.6 mg/dL | Hb (24 h): 12.8 g/dL | Ht (24 h): 37.7% | Lym (24 h): 74.2% | MCH (24 h): 21.8 pg | MCHC (24 h): 34% | MCV (24 h): 64.2 fL | Mono (24 h): 3.8% | Neu (24 h): 20.4% | PT (24 h): 13 s | Plat (24 h): 114.9 x10_4/uL | RBC (24 h): 588.4 x10_4/ul | Ret (24 h): 8.8% | WBC (24 h): 92.6 x10_2/uL | KIDNEY_L (24 h): 0.9 g | KIDNEY_R (24 h): 0.9 g | KIDNEY_TOTAL (24 h): 1.9 g | LIVER (24 h): 9.9 g | A/G (24 h): 1 | ALP (24 h): 1629.4 IU/L | ALT (24 h): 50.4 IU/L | AST (24 h): 79 IU/L | BUN (24 h): 15 mg/dL | CRE (24 h): 0.2 mg/dL | Ca (24 h): 10.7 mg/dL | Cl (24 h): 105 meq/L | DBIL (24 h): 0.018 mg/dL | GLC (24 h): 174.6 mg/dL | IP (24 h): 8.2 mg/dL | K (24 h): 4 meq/L | LDH (24 h): 58.8 IU/L | Na (24 h): 141 meq/L | PL (24 h): 144.6 mg/dL | RALB (24 h): 2.7 g/dL | TBIL (24 h): 0.032 mg/dL | TC (24 h): 82.6 mg/dL | TG (24 h): 89 mg/dL | TP (24 h): 5.4 g/dL | gamma-GTP (24 h): 1 IU/L
